Earlier results, collected in patent publication US20250025568A1, “COMBINATION OF ANTIBODY-DRUG CONJUGATE AND PARP1 SELECTIVE INHIBITOR” (AstraZeneca UK Limited, priority 2021, published 2025).

Legend:
BRCA2 −/− DLD-1 = details: 4 day compound dosing; read-out: BRCA2 −/− DLD-1 prolif 4 d IC50; cited from earlier work
WT DLD-1 = details: 4 day compound dosing; read-out: WT DLD-1 prolif 4 d IC50; cited from earlier work

CCc1cc2cnc(CN3CCN(c4ccc(C(=O)NC)nc4)CC3)cc2[nH]c1=O [Example 1, 5-[4-[(3-ethyl-2-oxo-1H-1,6-naphthyridin-7-yl)methyl]piperazin-1-yl]-N-methyl-pyridine-2-carboxamide]
IC50 (BRCA2 −/− DLD-1): 10 nM
IC50 (WT DLD-1): > 30 µM

CCc1cc2cnc(CN3CCN(c4ccc(C(=O)NC)nc4F)CC3)cc2[nH]c1=O [Example 2, 5-[4-[(3-ethyl-2-oxo-1H-1,6-naphthyridin-7-yl)methyl]piperazin-1-yl]-6-fluoro-N-methyl-pyridine-2-carboxamide]
IC50 (BRCA2 −/− DLD-1): 8 nM
IC50 (WT DLD-1): > 30 µM

CCc1cc2cnc(CN3CCN(c4ccc(C(=O)NC)nc4Cl)CC3)cc2[nH]c1=O [Example 3, 6-chloro-5-[4-[(3-ethyl-2-oxo-1H-1,6-naphthyridin-7-yl)methyl]piperazin-1-yl]-N-methyl-pyridine-2-carboxamide]
IC50 (BRCA2 −/− DLD-1): 4 nM
IC50 (WT DLD-1): > 30 µM

CCc1cc2ncc(CN3CCN(c4ccc(C(=O)NC)nc4F)CC3)cc2[nH]c1=O [Example 5, 5-[4-[(7-ethyl-6-oxo-5H-1,5-naphthyridin-3-yl)methyl]piperazin-1-yl]-6-fluoro-N-methyl-pyridine-2-carboxamide]
IC50 (BRCA2 −/− DLD-1): 6 nM
IC50 (WT DLD-1): > 30 µM

CCc1cc2ncc(CN3CCN(c4ccc(C(=O)NC)nc4Cl)CC3)cc2[nH]c1=O [Example 6, 6-chloro-5-[4-[(7-ethyl-6-oxo-5H-1,5-naphthyridin-3-yl)methyl]piperazin-1-yl]-N-methyl-pyridine-2-carboxamide]
IC50 (BRCA2 −/− DLD-1): 6 nM
IC50 (WT DLD-1): > 30 µM

CCc1cc2ncc(CN3CCN(c4ccc(C(N)=O)nc4)CC3)cc2[nH]c1=O [Example 7, 5-[4-[(7-ethyl-6-oxo-5H-1,5-naphthyridin-3-yl)methyl]piperazin-1-yl]pyridine-2-carboxamide]
IC50 (BRCA2 −/− DLD-1): 4140 nM

CCc1nc(C(=O)NC)ccc1N1CCN(Cc2ccc3nc(CC)c(=O)[nH]c3c2)CC1 [Example 8, 6-ethyl-5-[4-[(2-ethyl-3-oxo-4H-quinoxalin-6-yl)methyl]piperazin-1-yl]-N-methyl-pyridine-2-carboxamide]
IC50 (WT DLD-1): > 19 µM

CCc1nc2ccc(CN3CCN(c4ccc(C(=O)NC)nc4C(F)(F)F)CC3)cc2[nH]c1=O [Example 9, 5-[4-[(2-ethyl-3-oxo-4H-quinoxalin-6-yl)methyl]piperazin-1-yl]-N-methyl-6-(trifluoromethyl)pyridine-2-carboxamide]
IC50 (BRCA2 −/− DLD-1): 10 nM
IC50 (WT DLD-1): 17 µM

CCc1nc2ccc(CN3CCN(c4ccc(C(=O)NC)nc4C(F)F)CC3)cc2[nH]c1=O [Example 10, 6-(difluoromethyl)-5-[4-[(2-ethyl-3-oxo-4H-quinoxalin-6-yl)methyl]piperazin-1-yl]-N-methyl-pyridine-2-carboxamide]
IC50 (BRCA2 −/− DLD-1): 6 nM
IC50 (WT DLD-1): > 30 µM

CCc1nc2ccc(CN3CCN(c4ccc(C(=O)NC)nc4)CC3)cc2[nH]c1=O [Example 11, 5-[4-[(2-ethyl-3-oxo-4H-quinoxalin-6-yl)methyl]piperazin-1-yl]-N-methyl-pyridine-2-carboxamide]
IC50 (BRCA2 −/− DLD-1): 184 nM
IC50 (WT DLD-1): > 30 µM

CCc1nc2ccc(CN3CCN(c4ccc(C(=O)NC)nc4F)CC3)cc2[nH]c1=O [Example 12, 5-[4-[(2-ethyl-3-oxo-4H-quinoxalin-6-yl)methyl]piperazin-1-yl]-6-fluoro-N-methyl-pyridine-2-carboxamide]
IC50 (BRCA2 −/− DLD-1): 8 nM
IC50 (WT DLD-1): > 30 µM

CCCc1nc2ccc(CN3CCN(c4ccc(C(=O)NC)nc4Cl)CC3)cc2[nH]c1=O [Example 19, 6-chloro-N-methyl-5-[4-[(3-oxo-2-propyl-4H-quinoxalin-6-yl)methyl]piperazin-1-yl]pyridine-2-carboxamide]
IC50 (WT DLD-1): > 30 µM

CNC(=O)c1ccc(N2CCN(Cc3ccc4nc(CCF)c(=O)[nH]c4c3)CC2)cn1 [Example 25, 5-[4-[[2-(2-fluoroethyl)-3-oxo-4H-quinoxalin-6-yl]methyl]piperazin-1-yl]-N-methyl-pyridine-2-carboxamide]
IC50 (WT DLD-1): > 25 µM
